# Patent publication US20230364021A1 (CRITITECH, INC., priority 2020, published 2023)
# Assays:
# Type in all cases: physicochemical
# [1] = Particle size distribution (PSD) by laser diffraction, Malvern Mastersizer 3000
# Description: (§1) Three precipitation runs (approximately 600-700 mg) were conducted on the RC612B precipitation unit, according to the examples provided on the preceding pages. Solvent was the single variable modified between each group of three precipitations. The precipitates were analyzed by laser diffraction to determine PSD, BET sorptometry to determine SSA, SEM to determine habit and support PSD and SSA data, and PXRD to determine crystalline/amorphous form.
# PSD analyses were conducted on a Malvern Mastersizer™ 3000 using the Aero S dispersion unit according to the manufacturer instructions.
# [2] = Specific surface area (SSA) by BET sorptometry
# Description: As used herein, the “specific surface area” is the total surface area of the sorafenib particle per unit of sorafenib mass as measured by the Brunauer—Emmett—Teller (“BET”) isotherm (i.e.: the BET SSA). As will be understood by those of skill in the art, the SSA is determined on a per gram basis and takes into account both agglomerated and non-agglomerated sorafenib particles in the composition. The BET specific surface area test procedure is a compendial method included in both the United States Pharmaceopeia and the European Pharmaceopeia.
# as §1
# SSA determination analyses were conducted on a Quantachrome NOVAtouch™ LX^2 BET Sorptometer or a Porous Materials, Inc., Automated BET Sorptometer BET-202A according to the manufacturer instructions.
# [3] = Shake-flask solubility in organic solvent/water mixtures; conditions: for Concentration of Sorafenib Found: 24 hours, 20-25° C.
# Description: This method was conducted in acidic media. Development of a discriminating dissolution method at neutral pH (6.8 to 7.4) was pursued, as relevant for potential intra-tumoral delivery of the drug. The addition of organic solvents was used to increase the solubility of the compounds at neutral pH.
# Solubility was determined by using a shake-flask method. The drug was added in excess to each solution prepared in duplicate. The vials were placed on a mechanical shaker for 24 hours at 20-25° C. After shaking, solution was removed and filtered through a 0.2 μm PTFE syringe filter and analyzed by UV/Visible spectrophotometry.
smiles,measurement,setting,value
"CNC(=O)c1cc(Oc2ccc(NC(=O)Nc3ccc(Cl)c(C(F)(F)F)c3)cc2)ccn1 [Sorafenib, 4-(4-((((4-Chloro-3-(trifluoromethyl)phenyl)amino)carbonyl)amino)phenoxy)-N-methyl-2-pyridinecarboxamide]",PSD: Volume Dv-10,[1],12.3 μm
same,SSA,[2]; listed as Raw,1.02 m^2/g
same,SSA,[2]; listed as unprocessed material,0.88 m^2/g
same,Concentration of Sorafenib Found,"[3]; Ethanol, water to organic solvent ratio 25/75",553 µg/mL
same,Concentration of Sorafenib Found,"[3]; Ethanol, water to organic solvent ratio 50/50",325 µg/mL
same,Concentration of Sorafenib Found,"[3]; Methanol, water to organic solvent ratio 25/75",503 µg/mL
same,Concentration of Sorafenib Found,"[3]; Methanol, water to organic solvent ratio 50/50",41.4 µg/mL
same,Concentration of Sorafenib Found,"[3]; Methanol, water to organic solvent ratio 75/25",2.45 µg/mL
same,Solubility versus organic solvent concentration,"[3]; methanol/water and ethanol/water, both solvents",concentration dependent solubility
